From patent US9724408B2, “Compositions and methods for activating stimulator of interferon gene-dependent signalling” (ADURO BIOTECH, INC., priority 2013, dated 2017)

Tests used:
hSTING (Q) = assay: IFNβ-LUC reporter in HEK293T cells expressing hSTING (Q); type: cell-based, human; details: 10 μM, digitonin permeabilization, 6 hrs, FIG. 14
From the text: To determine the responsiveness of the five known natural human STING variants (referred to as WT, REF, HAQ, AQ and Q) to the native and derivative molecules, a panel of human embryonic kidney (HEK) 293T cell lines that expressed the human STING alleles was generated. […] MSCV2.2 plasmids encoding hSTING(REF)-GFP, hSTING(WT)-GFP, hSTING(HAQ)-GFP, hSTING(Q)-GFP and mSTING(WT)-GFP were obtained from the Vance Laboratory at UC Berkeley. hSTING(AQ)-GFP was derived from hSTING(Q)-GFP using a QuickChange Site-Directed Mutagenesis kit (Stratagene). The sequence of the hSTING(REF) allele is also known as the Barber allele (Ishikawa, H., and Barber, G. N. (2008). Nature 455, 674-678), and has the NCBI Reference Sequence NP_938023.1. The amino acid difference between hSTING(REF) and the other WT, HAQ, AQ and Q human STING alleles are shown in FIG. 13, which is adapted from Yi et al., Plos One 8: e77846 (2013). Stable HEK 293T-derived cell lines expressing each of the individual human STING alleles were generated by FACS sorting of GFP positive cells using a Mo Flo cell sorter at the Cancer Research Laboratory Flow Cytometry Facility at UC Berkeley. 1×10^4 HEK293T STING cells were seeded in 96-well plates and transiently transfected (using Lipofectamine 2000) with 50 ng of a human IFN-β reporter plasmid (pLuc-IFN-β) expressing the human IFN-β promoter upstream of a luciferase reporter and 10 ng of TK-renilla for normalization. 24 hours later, cells were stimulated with native and synthetic CDN derivative molecules using digitonin permeabalization to ensure uniform uptake. Each STING cell line was stimulated with 10 μM of cyclic [G(3′,5′)pA(3′,5′)p] (cGAMP), cyclic [G(2′,5′)pA(3′,5′)p] (ML-cGAMP), Rp, Rp dithio cyclic [G(2′,5′)pA(3′,5′)p] […] (CDA), Rp, Rp dithio cyclic [A(3′,5′)pA(3′,5′)p] (RR-CDA), cyclic [A(2′,5′)pA(3′,5′)p] (ML-CDA), Rp, Rp dithio cyclic [A(2′,5′)pA(3′,5′)p] (ML RR-CDA), cyclic [G(3′,5′)pG(3′,5′)p] (CDG), Rp, Rp dithio cyclic [G(3′,5′)pG(3′,5′)p] (RR-CDG), cyclic [G(2′,5′)pG(3′,5′)p] (ML-CDG) or Rp, Rp dithio cyclic [G(2′,5′)pG(3′,5′)p] (ML RR-CDG) in 25 ul digitonin buffer (50 mM HEPES, 100 mM KCL, 3 mM MgCl2, 0.1 mM DTT, 85 mM Sucrose, 0.2% BSA, 1 mM ATP, 0.1 mM GTP, 10 ug/ml digitonin). After 20 min, the stimulation mixtures were removed and 200 ul of standard RPMI media was added. After stimulation for 6 hrs, cell lysates were prepared and reporter gene activity measured using the Dual Luciferase Assay System (Promega) on a Spectramax M3 luminometer.

B16 melanoma cells = assay: B16 melanoma subcutaneous tumor model, intratumoral CDN; type: in vivo, C57BL/6 mice; details: 25 μg intratumoral, three injections, FIG. 18; for anti-tumor efficacy (tumor volume): every three days
Procedure: To assess the ability of the derivative molecules to promote anti-tumor immunity, B16 melanoma cells (5×10^4 cells in 100 μL PBS) were implanted subcutaneously on the lower back of 6-8 week old female C57BL/6 mice (8 mice per group). Treatments began when tumors reached a volume of approximately 75 mm^3, on day 14 post tumor implantation. The CDN compounds were administered (25 μg in a total volume of 40 μL HBSS) by subcutaneous injection into the center of the tumor using a 27 gauge needle. Injections were repeated every three days, for a total of three intratumoral injections. The CDNs tested were cyclic [G(3′,5′)pG(3′,5′)p] (CDG); cyclic [G(2′,5′)pG(3′,5′)p] (mixed linkage, or ML CDG); Rp, Rp dithio cyclic [G(2′,5′)pG(3′,5′)p] (ML RR-CDG); cyclic [A(3′,5′)pA(3′,5′)p] (CDA); cyclic [A(2′,5′)pA(3′,5′)p] (mixed linkage, or ML CDA); and Rp, Rp dithio cyclic [A(2′,5′)pA(3′,5′)p] (ML RR-CDA).
To determine whether the effects of the derivative molecules are STING-dependent, B16 melanoma cells (5×10^4 cells in 100 μL PBS) were implanted on the right flanks of 6-8 week old female goldenticket STING^−/− mice, or wild-type C57BL/6 control mice (5 mice per group). Treatments began when tumors reached a volume of approximately 75 mm^3, on day 14 post tumor implantation. The compounds administered were Rp, Rp dithio cyclic [G(2′,5′)pG(3′,5′)p] (ML RR-CDG) (25 μg in a total volume of 40 μL HBSS), Rp, Rp dithio cyclic [A(2′,5′)pA(3′,5′)p] (ML RR-CDA) (50 μg in a total volume of 40 μL HBSS), the TLR9 agonist CpG 1668 (50 μg in a total volume of 40 μL HBSS), or HBSS vehicle control. Mice were treated by subcutaneous injection into the center of tumor only using a 27 gauge needle. Injections were repeated every three days, for a total of three intratumoral injections.

[1] = system: CT26 colon carcinoma cells; assay: CT26 lung metastasis survival model, subcutaneous CDN; type: in vivo, BALB/c mice; details: CT26 intravenous, 25 μg subcutaneous at base of the tail, day 1 and one week later, log-rank test, FIG. 19A
Procedure: To further assess the ability of the derivative molecules to promote anti-tumor immunity, CT26 colon carcinoma cells (2×10^5 cells in 100 μL PBS) were implanted by intravenous injection into 6-8 week old female BALB/c mice and assessed for overall survival. The CDN compounds (25 μg in a total volume of 100 μL HBSS) were administered one day post tumor implantation by subcutaneous injection into the base of the tail. Mice were boosted with an additional injection one week later for a total of two vaccinations.

SMILES | IFNβ reporter response of hSTING (Q) (hSTING (Q)) | anti-tumor efficacy (tumor volume) (B16 melanoma cells) | tumor status by day 44 post tumor implantation (B16 melanoma cells) | survival rates [1] | tumor rejection (B16 melanoma cells; P=0.0004, student's t-test)
Nc1nc2c(ncn2[C@@H]2O[C@@H]3CO[P@@](O)(=S)O[C@@H]4[C@H](O)[C@@H](CO[P@@](O)(=S)O[C@H]3[C@H]2O)O[C@H]4n2cnc3c(=O)[nH]c(N)nc32)c(=O)[nH]1 [ML RR-CDG, dithio-[RP,RP]-cyclic-[G(2′,5′)pG(3′,5′)p]] | responsive to stimulation | potent anti-tumor efficacy | mice remained nearly tumor-free | significantly higher survival rates compared to the cyclic [G(2′,5′)pG(3′,5′)p] (ML CDG) molecule | 
Nc1ncnc2c1ncn2[C@@H]1O[C@@H]2COP(O)(=S)O[C@@H]3C(O)[C@@H](COP(O)(=S)O[C@H]2[C@H]1O)O[C@H]3n1cnc2c(N)ncnc21 (some centres unmarked) [ML RR-CDA, dithio-[RP, RP]-cyclic-[A(2′,5′)pA(3′,5′)p]] | responsive to stimulation | potent anti-tumor efficacy |  | significantly higher survival rates compared to the cyclic [A(2′,5′)pA(3′,5′)p] (ML CDA) molecule | significantly more tumor rejection than the ML CDA derivative
